≈ marks a conversion by molar mass, not a printed value. Where “and” joins values, the source holds several entries; their conditions need not be identical. Equal entries are not always repeated.

By MIC is commonly meant the least concentration at which growth counts as inhibited. Low readings indicate greater potency, high ones weaker potency.

Holding throughout (assay): ≥ marks a high value that may be exact or a test limit, other limits are often not marked, values filed in µg/mL are converted to µM
Experiment [1] deals with Pseudomonas aeruginosa ATCC 9027.
The test system of experiment [2] is Staphylococcus aureus ATCC 25923.
The test system of experiment [3] is Escherichia coli ATCC 25922.
Experiment [4] concerns Acinetobacter baumannii.
The subject of experiment [5] is Klebsiella pneumoniae ATCC 700603.
In experiment [6] the test system is Klebsiella pneumoniae ATCC 10031.
Experiment [7] concerns Salmonella enterica subsp. enterica serovar Typhimurium ATCC 14028.
The subject of experiment [8] is Escherichia coli DH5alpha.
For experiment [9], the system named is Staphylococcus aureus ATCC 6538.
Experiment [10] has as its system Acinetobacter baumannii ATCC 19606.
The test system of experiment [11] is Pseudomonas aeruginosa ATCC 27853.
Experiment [12] concerns Klebsiella pneumoniae ATCC 13883.
Experiment [13] has as its system Enterococcus faecalis ATCC 29212.
The subject of experiment [14] is Escherichia coli ATCC 25726.
Experiment [15] deals with Bacillus subtilis 168.
The test system of experiment [16] is Candida albicans ATCC 90028.

With `CC[C@H](C)[C@H](NC(=O)[C@H](C)N)C(=O)N[C@@H](Cc1c[nH]c2ccccc12)C(=O)N[C@@H](CCCN=C(N)N)C(=O)N[C@@H](CCCCN)C(=O)N[C@@H](C)C(=O)N[C@H](C(=O)N[C@@H](CCCN=C(N)N)C(=O)N[C@@H](CCCN=C(N)N)C(=O)N[C@@H](CC(C)C)C(=O)N[C@H](C(=O)N[C@@H](CCCCN)C(=O)N[C@@H](CC(C)C)C(=O)N[C@H](C(=O)N[C@H](C(N)=O)C(C)C)[C@@H](C)CC)C(C)C)[C@@H](C)O` [AIWRKATRRLVKLIV], the MIC in experiment [1] came to 3 µM (≈ 5.47 µg/mL); in [2] it was 12 µM (≈ 21.9 µg/mL); in experiment [3], 12.5 µM (≈ 22.8 µg/mL); in experiment [4], 3.12 µM (≈ 5.69 µg/mL); in experiment [5], 25 µM (≈ 45.6 µg/mL).

As for `CC[C@H](C)[C@@H]1NC(=O)[C@H](CCCCN)NC(=O)[C@@H](NC(=O)[C@@H](NC(=O)[C@@H](NC(=O)[C@@H](NC(=O)[C@@H]2CCCN2C(=O)[C@H](CC(C)C)NC(=O)[C@H](Cc2ccccc2)NC(=O)[C@H](CC(N)=O)NC(=O)[C@H](C)NC(=O)[C@H](C)NC(=O)[C@H](CC(C)C)NC(=O)CNC(=O)[C@H](C)NC(=O)[C@@H](N)Cc2ccccc2)[C@@H](C)O)[C@@H](C)CC)[C@@H](C)CC)CSSC[C@@H](C(=O)O)NC(=O)[C@H](CCCCN)NC(=O)[C@H](Cc2ccc(O)cc2)NC(=O)[C@H](CO)NC1=O` [FAGLAANFLPTIICKISYKC], the minimum inhibitory concentration (MIC) was not below 46 µM in experiment [6], more than 46 µM in experiment [7] and not below 46 µM in experiment [8].

With `CC(C)C[C@H](NC(=O)[C@H](C)NC(=O)[C@H](CC(C)C)NC(=O)[C@H](CC(C)C)NC(=O)[C@H](CCCCN)NC(=O)[C@H](CCCCN)NC(=O)[C@H](C)NC(=O)[C@H](CC(C)C)NC(=O)[C@H](CCCCN)NC(=O)[C@H](C)NC(=O)[C@H](CC(C)C)NC(=O)[C@H](CCCCN)NC(=O)[C@H](CCCCN)NC(=O)[C@H](C)NC(=O)[C@@H](N)Cc1ccccc1)C(N)=O` [FAKKLAKLAKKLLAL], the MIC amounted to 30.2 µM (≈ 50 µg/mL) in experiment [1] and 3.02 µM (≈ 5 µg/mL) in experiment [9].

Regarding `CC(C)C[C@H](NC(=O)[C@H](C)NC(=O)[C@H](Cc1ccccc1)NC(=O)[C@H](CCCCN)NC(=O)[C@H](CCCCN)NC(=O)[C@H](C)NC(=O)[C@H](CC(C)C)NC(=O)[C@H](CCCCN)NC(=O)[C@H](C)NC(=O)[C@H](CC(C)C)NC(=O)[C@H](CC(C)C)NC(=O)[C@H](CCCCN)NC(=O)[C@H](C)NC(=O)[C@@H](N)Cc1ccccc1)C(N)=O` [FAKLLAKLAKKFAL], the MIC in [1] amounted to 128 µM (≈ 200 µg/mL); in [9] it was 32 µM (≈ 50 µg/mL).

For the compound `CC[C@H](C)[C@H](NC(=O)CNC(=O)[C@H](CCCCN)NC(=O)[C@H](CC(C)C)NC(=O)[C@@H](N)Cc1ccccc1)C(=O)N[C@H](C(=O)N[C@@H](CC(=O)O)C(=O)N[C@H](C(=O)N[C@H](C(=O)N[C@@H](CO)C(=O)N[C@@H](CC(N)=O)C(=O)N[C@@H](Cc1c[nH]c2ccccc12)C(=O)N[C@@H](CC(C)C)C(N)=O)C(C)C)[C@@H](C)O)[C@@H](C)CC` [FLKGIIDTVSNWL], the minimal inhibitory concentration (MIC) in [10] was more than 26.6 µM.

As to `CC[C@H](C)[C@@H]1NC(=O)[C@H](CCCCN)NC(=O)[C@@H](NC(=O)[C@@H](NC(=O)[C@@H](NC(=O)[C@@H](NC(=O)[C@@H]2CCCN2C(=O)[C@H](CC(C)C)NC(=O)[C@H](Cc2ccccc2)NC(=O)[C@H](CCCCN)NC(=O)[C@H](C)NC(=O)[C@H](C)NC(=O)[C@H](CC(C)C)NC(=O)[C@H](CCCCN)NC(=O)[C@H](CCCCN)NC(=O)[C@H](CC(C)C)NC(=O)[C@H](CC(C)C)NC(=O)[C@H](CCCCN)NC(=O)[C@H](CC(C)C)NC(=O)[C@@H](N)Cc2ccccc2)[C@@H](C)O)[C@@H](C)CC)[C@@H](C)CC)CSSC[C@@H](C(=O)O)NC(=O)[C@H](CCCCN)NC(=O)[C@H](Cc2ccc(O)cc2)NC(=O)[C@H](CO)NC1=O` [FLKLLKKLAAKFLPTIICKISYKC], the results for the MIC in experiment [6], in experiment [7] and in experiment [8] were not below 35.9 µM, 35.9 µM (≈ 99.9 µg/mL) and 18 µM (≈ 50 µg/mL), respectively.

Turning to `CC(C)C[C@H](NC(=O)[C@H](CC(C)C)NC(=O)[C@H](CCCCN)NC(=O)[C@H](CCCCN)NC(=O)[C@H](CC(C)C)NC(=O)[C@@H](NC(=O)[C@H](CCCCN)NC(=O)[C@H](CC(C)C)NC(=O)[C@@H](N)Cc1ccccc1)[C@@H](C)O)C(N)=O` [FLKTLKKLL], the MIC in experiment [2] was determined as 58 µM (≈ 63.9 µg/mL); in [10], 58 µM (≈ 63.9 µg/mL); in [3], 58 µM (≈ 63.9 µg/mL); in experiment [11], 7.25 µM (≈ 7.99 µg/mL).

With `CC[C@H](C)[C@H](NC(=O)CNC(=O)[C@H](CO)NC(=O)[C@H](CC(C)C)NC(=O)[C@@H](NC(=O)[C@H](CCCN=C(N)N)NC(=O)CNC(=O)[C@@H](NC(=O)[C@H](CC(C)C)NC(=O)[C@@H]1CCCN1C(=O)[C@H](CC(C)C)NC(=O)[C@@H](N)Cc1ccccc1)[C@@H](C)CC)C(C)C)C(=O)N[C@@H](CC(C)C)C(=O)NCC(=O)N[C@@H](Cc1c[nH]c2ccccc12)C(=O)N[C@@H](CCCCN)C(=O)N[C@@H](CCCN=C(N)N)C(=O)N[C@@H](CCCCN)C(=O)N[C@@H](CCCN=C(N)N)C(=O)N[C@@H](Cc1ccccc1)C(=O)NCC(N)=O` [FLPLIGRVLSGILGWKRKRFG], the MIC in experiment [7] was 5 µM and 10 µM; in experiment [12], 4 µM and 8 µM; in experiment [13] it was 10 µM (≈ 24.1 µg/mL).

Turning to `CC(C)C[C@H](NC(=O)[C@H](CC(C)C)NC(=O)CNC(=O)[C@H](CO)NC(=O)[C@H](CC(C)C)NC(=O)[C@H](CC(C)C)NC(=O)CNC(=O)[C@@H](NC(=O)[C@@H](NC(=O)[C@H](CC(C)C)NC(=O)[C@@H]1CCCN1C(=O)[C@H](CC(C)C)NC(=O)[C@@H](N)Cc1ccccc1)C(C)C)[C@@H](C)O)C(N)=O` [FLPLVTGLLSGLL], the MIC in [2] was 64 µM (≈ 85.9 µg/mL); in [14], not below 128 µM.

For `CC(C)[C@H](NC(=O)[C@H](CCCCN)NC(=O)[C@H](CCCCN)NC(=O)[C@@H](NC(=O)[C@@H](NC(=O)[C@H](CCCCN)NC(=O)[C@H](CCCCN)NC(=O)[C@@H](NC(=O)[C@@H](NC(=O)[C@H](CCCCN)NC(=O)[C@H](CCCCN)NC(=O)[C@@H](NC(=O)[C@@H](NC(=O)CN)C(C)C)C(C)C)C(C)C)C(C)C)C(C)C)C(C)C)C(N)=O` [GVVKKVVKKVVKKV], the MIC in [8] was not below 125 µM; in experiment [15] it was not below 65 µM.

With `CC[C@H](C)[C@H](N)C(=O)N[C@@H](CCCCN)C(=O)N[C@H](C(=O)N1CCC[C@H]1C(=O)N[C@@H](C)C(=O)N[C@@H](Cc1ccccc1)C(=O)N[C@H](C(=O)N[C@@H](CCCCN)C(=O)N[C@@H](CC(=O)O)C(=O)N[C@H](C(=O)N[C@@H](CC(C)C)C(=O)N[C@@H](CCCCN)C(=O)N[C@@H](CCCCN)C(=O)N[C@H](C(=O)N[C@@H](C)C(=O)N[C@@H](CCCCN)C(=O)NCC(=O)N[C@H](C(=O)N[C@H](C(=O)N[C@@H](CO)C(=O)N[C@@H](C)C(=O)N[C@H](C(=O)N[C@@H](C)C(=O)NCC(=O)N[C@@H](C)C(=O)N[C@@H](CC(C)C)C(=O)N[C@H](C(=O)N[C@@H](CCC(N)=O)C(=O)O)[C@@H](C)O)C(C)C)[C@@H](C)CC)C(C)C)C(C)C)[C@@H](C)O)C(C)C)[C@@H](C)CC` [IKIPAFVKDTLKKVAKGVISAVAGALTQ], the minimal inhibitory concentration (MIC) was 20 µM (≈ 57.4 µg/mL) in experiment [2]; 20 µM (≈ 57.4 µg/mL) in experiment [14]; 20 µM (≈ 57.4 µg/mL) in experiment [11]; 20 µM (≈ 57.4 µg/mL) in experiment [5]; not below 80 µM in [16].

In the case of `CC[C@H](C)[C@H](N)C(=O)N[C@@H](CCCCN)C(=O)N[C@H](C(=O)N1CCC[C@H]1C(=O)N1CCC[C@H]1C(=O)N[C@H](C(=O)N[C@H](C(=O)N[C@@H](CCCCN)C(=O)N[C@@H](CC(=O)O)C(=O)N[C@H](C(=O)N[C@@H](CC(C)C)C(=O)N[C@@H](CCCCN)C(=O)N[C@@H](CCCCN)C(=O)N[C@H](C(=O)N[C@@H](C)C(=O)N[C@@H](CCCCN)C(=O)NCC(=O)N[C@H](C(=O)N[C@@H](CC(C)C)C(=O)N[C@@H](CO)C(=O)N[C@H](C(=O)N[C@H](C(=O)N[C@@H](C)C(=O)NCC(=O)N[C@@H](C)C(=O)N[C@@H](CC(C)C)C(=O)N[C@@H](CO)C(=O)N[C@H](C(=O)O)[C@@H](C)O)[C@@H](C)CC)[C@@H](C)O)C(C)C)C(C)C)[C@@H](C)O)C(C)C)[C@@H](C)CC)[C@@H](C)CC` [IKIPPIVKDTLKKVAKGVLSTIAGALST], the MIC in [2] was 80 µM (≈ 229 µg/mL); in experiment [14], not below 40 µM; in experiment [16], not below 160 µM.

For the compound `CC[C@H](C)[C@@H]1NC(=O)[C@H](CCSC)NC(=O)[C@@H]2CCCN2C(=O)[C@@H]2CCCN2C(=O)[C@@H](NC(=O)[C@@H](N)Cc2c[nH]c3ccccc23)CSSC[C@@H](C(=O)N[C@@H](CO)C(=O)N[C@@H](CCCN=C(N)N)C(=O)N[C@@H](Cc2ccccc2)C(N)=O)NC(=O)[C@H](CC(C)C)NC(=O)[C@@H]2CCCN2C1=O` [WCPPMIPLCSRF], the MIC is more than 200 µM in experiment [2] and not below 200 µM in [14].

Values taken from DBAASP.
